Results as given in patent publication EP0399422A1, “Benzocycloalkane derivatives and production thereof” (Takeda Chemical Industries, Ltd., priority 1989, dated 1990).
Marks after values point to notes of the source that are not given here.

Columns and labels:
[1] = test system: Acyl-CoA:cholesterol acyl transferase (ACAT); experiment: Acyl-CoA:cholesterol acyl transferase (ACAT) inhibiting activity; type: biochemical, male Sprague-Dawley rats; parameters: tested at 1 µM; settings: inhibition of labeled cholesterol ester formation at 10⁻⁶ M of the test compounds; small intestine mucosa microsome fraction
Experimental: An ACAT enzyme preparation was obtained from the small intestine mucosa microsome fraction from male Sprague-Dawley rats of 6 weeks of age fasted for 20 hours, as described by Heider et al. [Journal of Lipid Research, 24, 1127 (1982)].
The ACAT activity was calculated by determining the yield of a labeled cholesterol ester from [1-¹⁴C]oleoyl-CoA and endogenous cholesterol using the method of Helgerud et al. [Journal of Lipid Research, 22, 271 (1981)].
The inhibition percentages of the labeled cholesterol ester formation at 10⁻⁶ M of the test compounds are shown in Table 1 as ACAT inhibiting activity indices.

cholesterol-loaded rats = experiment: Plasma cholesterol lowering activity in cholesterol-loaded rats; type: in vivo, Male Sprague-Dawley rats; settings: 1% cholesterol diet containing 0.01% test compound for 4 days; dose 8.5 mg/kg/day; control group 266 + 46; p<0.01
Experimental: Male Sprague-Dawley rats of 7 weeks of age were fed with a 1% cholesterol diet (containing 0.5% cholic acid and 5% olive oil) for 3 days, then grouped by plasma cholesterol level and further fed with the same diet containing 0.01% test compound for 4 days. Blood samples were collected at 8:30 a.m. to 10:00 a.m. while the animals were satiated, and plasma cholesterol levels were determined enzymatically. Intakes of the compound were calculated from food intake data.

- % ACAT inhibition [1]: 84%
SMILES: O=C(Nc1ccc(F)cc1F)N(Cc1ccccc1Cl)C1Cc2ccccc2C1 [Example 1, N-(2-chlorobenzyl)-N′-(2,4-difluorophenyl)-N-(2-indanyl)urea]
- Plasma cholesterol (cholesterol-loaded rats): 128 + 47* mg/dl
